Patent EP0183174A2, “Substituted phenoxy urea, processes for its preparation and herbicide containing it as active ingredient” (KUMIAI CHEMICAL INDUSTRY CO., LTD., priority 1984, dated 1986)

Key:
[1] = test system: barnyardgrass (Echinochloa crus-galli L.); assay: Test Example 1: herbicidal test by water treatment in a paddy field; format: in vivo; set-up: key: 5: Withered; 4.5: Herbicidal effect (or phytotoxicity) in a range of 90 to 99%; 4: Herbicidal effect (or phytotoxicity) in a range of 80 to 89%; 3.5: Herbicidal effect (or phytotoxicity) in a range of 70 to 79%; 3: Herbicidal effect (or phytotoxicity) in a range of 60 to 69%; 2.5: Herbicidal effect (or phytotoxicity) in a range of 50 to 59%; 2: Herbicidal effect (or phytotoxicity) in a range of 40 to 49%; 1.5: Herbicidal effect (or phytotoxicity) in a range of 30 to 39%; 1: Herbicidal effect (or phytotoxicity) in a range of 20 to 29%; 0.5: Herbicidal effect (or phytotoxicity) in a range of 1 to 19%; 0: No herbicidal effect (or no phytotoxicity); conditions: evaluated thirty days after application
Experimental: (§1) Into each porcelain pot having a diameter of 10 cm, paddy soil was filled and puddled, and seeds of barnyardgrass (Echinochloa crus-galli L.), smallflower flatsedge, monochoria and Japanese bulrush were sown, and water was filled in a-depth of 3 cm. One day later, a predetermined amount of the wettable powder prepared in Formulation Example 3 and diluted with water was dropwise applied to the surface of the water (dose of the active ingredient: 4 kg/hectare). Thereafter, they were grown in a green house. Thirty days after the application, the herbicidal effects were evaluated in accordance with the standards as identified in Table 5.

redroot pigweed [2] = assay: Test Example 4: herbicidal test by upland foliage treatment; format: in vivo, Amaranthus retroflexus L.
Experimental: (§2) Into each plastic pot of 120 cm^2, upland soil was filled, then seeds of barnyardgrass, crabgrass, redroot pigweed and rice flatsedge were sown, and they were grown in a greenhouse until barnyardgrass. reached 3-leaf stage. Each wettable powder prepared from the test compound in accordance with Formulation Example 3 was diluted with water to give the amount of the active ingredient corresponding to 4 kg/hectare, and the diluted solution was uniformly sprayed at an application rate of 1000 liter/hectare from the top of plants by means of a small size spray, when barnyardgrass was in the 3-leaf stage. They were grown in a greenhouse, and twenty days after the application, the herbicidal effects were evaluated in accordance with the standards as identified in Table 5.

rice flatsedge [3] = assay: Test Example 3: herbicidal test by upland soil treatment; format: in vivo, Cy^perus iria L.; set-up: key: 5: Withered; 4.5: Herbicidal effect (or phytotoxicity) in a range of 90 to 99%; 4: Herbicidal effect (or phytotoxicity) in a range of 80 to 89%; 3.5: Herbicidal effect (or phytotoxicity) in a range of 70 to 79%; 3: Herbicidal effect (or phytotoxicity) in a range of 60 to 69%; 2.5: Herbicidal effect (or phytotoxicity) in a range of 50 to 59%; 2: Herbicidal effect (or phytotoxicity) in a range of 40 to 49%; 1.5: Herbicidal effect (or phytotoxicity) in a range of 30 to 39%; 1: Herbicidal effect (or phytotoxicity) in a range of 20 to 29%; 0.5: Herbicidal effect (or phytotoxicity) in a range of 1 to 19%; 0: No herbicidal effect (or no phytotoxicity); conditions: evaluated twenty days after application
Excerpt: (§3) Into each plastic pot of 600 cm^2, upland soil was filled, then seeds of barnyardgrass, crabgrass, green foxtail, redroot pigweed, rice flatsedge, rice, wheat, maize, soybean, cotton and sugar beet were sown, and they were covered with soil. A predetermined amount of the wettable powder prepared from the test compound in accordance with Formulation Example 3 and diluted with water, was uniformly applied to the surface of the soil at an application rate of 1000 liter/hectare by means of a small size spray. They were grown in a greenhouse, and twenty days after the application, the herbicidal effects and phytotoxicity were evaluated in accordance with the standards as identified in Table 5.

rice flatsedge [4] = assay: Test Example 4: herbicidal test by upland foliage treatment; format: in vivo, Cy^perus iria L.; set-up: key: 5: Withered; 4.5: Herbicidal effect (or phytotoxicity) in a range of 90 to 99%; 4: Herbicidal effect (or phytotoxicity) in a range of 80 to 89%; 3.5: Herbicidal effect (or phytotoxicity) in a range of 70 to 79%; 3: Herbicidal effect (or phytotoxicity) in a range of 60 to 69%; 2.5: Herbicidal effect (or phytotoxicity) in a range of 50 to 59%; 2: Herbicidal effect (or phytotoxicity) in a range of 40 to 49%; 1.5: Herbicidal effect (or phytotoxicity) in a range of 30 to 39%; 1: Herbicidal effect (or phytotoxicity) in a range of 20 to 29%; 0.5: Herbicidal effect (or phytotoxicity) in a range of 1 to 19%; 0: No herbicidal effect (or no phytotoxicity)
Experimental: as §2

redroot pigweed [5] = assay: Test Example 3: herbicidal test by upland soil treatment; format: in vivo, Amaranthus retroflexus L.; set-up: key: 5: Withered; 4.5: Herbicidal effect (or phytotoxicity) in a range of 90 to 99%; 4: Herbicidal effect (or phytotoxicity) in a range of 80 to 89%; 3.5: Herbicidal effect (or phytotoxicity) in a range of 70 to 79%; 3: Herbicidal effect (or phytotoxicity) in a range of 60 to 69%; 2.5: Herbicidal effect (or phytotoxicity) in a range of 50 to 59%; 2: Herbicidal effect (or phytotoxicity) in a range of 40 to 49%; 1.5: Herbicidal effect (or phytotoxicity) in a range of 30 to 39%; 1: Herbicidal effect (or phytotoxicity) in a range of 20 to 29%; 0.5: Herbicidal effect (or phytotoxicity) in a range of 1 to 19%; 0: No herbicidal effect (or no phytotoxicity); conditions: evaluated twenty days after application
Excerpt: as §3

smallflower flatsedge = assay: Test Example 1: herbicidal test by water treatment in a paddy field; format: in vivo, Cvperus diffcrmis L.; set-up: key: 5: Withered; 4.5: Herbicidal effect (or phytotoxicity) in a range of 90 to 99%; 4: Herbicidal effect (or phytotoxicity) in a range of 80 to 89%; 3.5: Herbicidal effect (or phytotoxicity) in a range of 70 to 79%; 3: Herbicidal effect (or phytotoxicity) in a range of 60 to 69%; 2.5: Herbicidal effect (or phytotoxicity) in a range of 50 to 59%; 2: Herbicidal effect (or phytotoxicity) in a range of 40 to 49%; 1.5: Herbicidal effect (or phytotoxicity) in a range of 30 to 39%; 1: Herbicidal effect (or phytotoxicity) in a range of 20 to 29%; 0.5: Herbicidal effect (or phytotoxicity) in a range of 1 to 19%; 0: No herbicidal effect (or no phytotoxicity); conditions: evaluated thirty days after application
Experimental: as §1

[6] = dose of the active ingredient 4 kg/hectare, wettable powder applied to water surface one day after sowing
[7] = active ingredient 4 kg/hectare, foliage spray 1000 liter/hectare at 3-leaf stage of barnyardgrass, twenty days after application
[8] = water treatment in paddy field pot, dose of active ingredient 4 kg/hectare
[9] = upland foliage treatment, 4 kg/hectare active ingredient, sprayed at 1000 liter/hectare at barnyardgrass 3-leaf stage, evaluated twenty days after application

CN(C)C(=O)NOc1cc(Cl)ccc1Cl [Compound No. 1, 3-(2,5-Dichlorophenoxy)-1,1-dimethyl urea]
Herbicidal effects Barnyard grass [1, 6]: 5 | Herbicidal effects Redroot pigweed (redroot pigweed [2]; [7]): 4 (Herbicidal effect (or phytotoxicity) in a range of 80 to 89%) | Herbicidal effects Rice flatsedge (rice flatsedge [3]; Dose 1 kg/HA): 5 | Herbicidal effects Rice flatsedge (rice flatsedge [3]; Dose 4 kg/HA): 5 | Herbicidal effects Rice flatsedge (rice flatsedge [4]; [7]): 5 | Herbicidal effects Redroot pigweed (redroot pigweed [5]; Dose 1 kg/HA): 5 | Herbicidal effects Redroot pigweed (redroot pigweed [5]; Dose 4 kg/HA): 5 | Herbicidal effects Small flower flatsedge (smallflower flatsedge; [6]): 5

CC(C)N(C)C(=O)NOc1cc(Cl)cc(Cl)c1 [Compound No. 186, 3-(3,5-Dichlorophenoxy)-1-isopropyl-1-methyl urea trichloroacetate]
Herbicidal effects Barnyard grass [1, 8]: 5 | Herbicidal effects Redroot pigweed (redroot pigweed [2]; [7]): 2 (Herbicidal effect (or phytotoxicity) in a range of 40 to 49%) | Herbicidal effects Rice flatsedge (rice flatsedge [3]; Dose 1 kg/HA): 5 | Herbicidal effects Rice flatsedge (rice flatsedge [3]; Dose 4 kg/HA): 5 | Herbicidal effects Rice flatsedge (rice flatsedge [4]; [7]): 4 (Herbicidal effect (or phytotoxicity) in a range of 80 to 89%) | Herbicidal effects Redroot pigweed (redroot pigweed [5]; Dose 1 kg/HA): 5 | Herbicidal effects Redroot pigweed (redroot pigweed [5]; Dose 4 kg/HA): 5 | Herbicidal effects Small flower flatsedge (smallflower flatsedge; [8]): 5

CON(C)C(=O)NOc1cc(Cl)ccc1Cl [Compound No. 242, 3-(2,5-Dichlorophenoxy)-1-methoxy-1-methyl urea]
Herbicidal effects Barnyard grass [1, 8]: 5 | Herbicidal effects Redroot pigweed (redroot pigweed [2]; [9]): 3 (Herbicidal effect (or phytotoxicity) in a range of 60 to 69%) | Herbicidal effects Rice flatsedge (rice flatsedge [3]; Dose 1 kg/HA): 5 | Herbicidal effects Rice flatsedge (rice flatsedge [3]; Dose 4 kg/HA): 5 | Herbicidal effects Rice flatsedge (rice flatsedge [4]; [9]): 5 | Herbicidal effects Redroot pigweed (redroot pigweed [5]; Dose 1 kg/HA): 5 | Herbicidal effects Redroot pigweed (redroot pigweed [5]; Dose 4 kg/HA): 5 | Herbicidal effects Small flower flatsedge (smallflower flatsedge; [8]): 5

COCCNC(=O)NOc1cc(Cl)ccc1Cl [Compound No. 243]
Herbicidal effects Barnyard grass [1, 8]: 5 | Herbicidal effects Redroot pigweed (redroot pigweed [2]; [9]): 4 (Herbicidal effect (or phytotoxicity) in a range of 80 to 89%) | Herbicidal effects Rice flatsedge (rice flatsedge [3]; Dose 1 kg/HA): 5 | Herbicidal effects Rice flatsedge (rice flatsedge [3]; Dose 4 kg/HA): 5 | Herbicidal effects Rice flatsedge (rice flatsedge [4]; [9]): 5 | Herbicidal effects Redroot pigweed (redroot pigweed [5]; Dose 1 kg/HA): 5 | Herbicidal effects Redroot pigweed (redroot pigweed [5]; Dose 4 kg/HA): 5 | Herbicidal effects Small flower flatsedge (smallflower flatsedge; [8]): 5
